# Data reported in patent US10206902B2, “Mono- or di-substituted indoles as dengue viral replication inhibitors” (priority 2014, dated 2019).
# Assays:
# DENV-2 16681 strain = experiment: DENV-2 antiviral assay (eGFP-labelled virus in Vero cells); assay type: cell-based, Dengue virus; conditions: DENV-2 16681 eGFP, MOI 0.5, 3 days
# Method: The antiviral activity of all the compounds of the invention was tested against DENV-2 16681 strain which was labeled with enhanced green fluorescent protein (eGPF). The culture medium consists of minimal essential medium supplemented with 2% of heat-inactivated fetal calf serum, 0.04% gentamycin (50 mg/mL) and 2 mM of L-glutamine. Vero cells, obtained from ECACC, were suspended in culture medium and 25 μL was added to 384-well plates (2500 cells/well), which already contain the antiviral compounds. Typically, these plates contain a 4-fold serial dilution of 9 dilution steps of the test compound at 200 times the final concentration in 100% DMSO (200 nL). In addition, each compound concentration is tested in quadruplicate (final concentration range: 25 μM-0.00038 μM). Finally, each plate contains wells which are assigned as virus controls (containing cells and virus in the absence of compound), cell controls (containing cells in the absence of virus and compound) and medium controls (containing medium in the absence of cells, virus and compounds). To the wells assigned as medium control, 25 μL of culture medium was added instead of Vero cells. Once the cells were added to the plates, the plates were incubated for 30 minutes at room temperature to allow the cells to distribute evenly within the wells. Next, the plates were incubated in a fully humidified incubator (37° C., 5% CO2) until the next day. Then, DENV-2 strain 16681, labeled with eGFP, was added at a multiplicity of infection (MOI) of 0.5. Therefore, 15 μL of virus suspension was added to all the wells containing test compound and to the wells assigned as virus control. In parallel, 15 μL of culture medium was added to the medium and cell controls. Next, the plates were incubated for 3 days in a fully humidified incubator (37° C., 5% CO2). At the day of the read out, the eGFP fluorescence was measured using an automated fluorescence microscope at 488 nm (blue laser). Using an in-house LIMS system, inhibition dose response curves for each compound were calculated and the half maximal effective concentration (EC50) was determined. Therefore, the percent inhibition (I) for every test concentration is calculated using the following formula: I=100*(ST−SCC)/(SVC−SCC); ST, SCC and SVC are the amount of eGFP signal in the test compound, cell control and virus control wells, respectively. The EC50 represents the concentration of a compound at which the virus replication is inhibited with 50%, as measured by a 50% reduction of the eGFP fluorescent intensity compared to the virus control. The EC50 is calculated using linear interpolation (Table 1).
# Vero cells = experiment: in vitro; assay type: cell-based; conditions: African green monkey
# Method: (§1) In parallel, the toxicity of the compounds was assessed on the same plates. Once the read-out for the eGFP signal was done, 10 μL of resazurin, a cell viability stain, was added to all wells of the 384-well plates. The resazurin assay is based on the reduction of the blue resazurin by NADH, produced by the cells, into the highly fluorescent product, resorufin. The formation of pink fluorescent resorufin is directly related to the number of viable cells in the well. The plates were incubated for an additional 5 hours in a fully humidified incubator (37° C., 5% CO2). Next, the plates were measured on an Infinite reader (Tecan) using an excitation wavelength of 530 nm. The half maximal cytotoxic concentration (CO50) was also determined, defined as the concentration required to reduce the resazurin conversion by 50% compared to that of the cell control wells (Table 1). Finally, the selectivity index (SI) was determined for the compounds, which was calculated as followed: SI=CC50/EC50.
# in vitro = assay type: cell-based; conditions: African green monkey, CC50
# Method: as §1
smiles,measurement,setting,value
"COc1cc(NC(C(=O)c2c[nH]c3cc(OC)c(F)cc23)c2ccc(F)cc2OC)cc(OCCO)c1 (single isomer, unassigned) [Compound 7B, 2-(4-fluoro-2-methoxyphenyl)-1-(5-fluoro-6-methoxy-1H-indol-3-yl)-2-((3-(2-hydroxyethoxy)-5-methoxyphenyl)amino)ethanone]",EC50,DENV-2 16681 strain,0.54 µM
same,CC50,Vero cells,14 µM
"COc1cc(NC(C(=O)c2c[nH]c3c(C)cc(F)cc23)c2ccc(F)cc2OC)cc(OCCO)c1 (racemic) [Compound 9, 2-(4-fluoro-2-methoxyphenyl)-1-(5-fluoro-7-methyl-1H-indol-3-yl)-2-((3-(2-hydroxyethoxy)-5-methoxyphenyl)amino)ethanone]",melting point,,179 °C
same,EC50,"DENV-2 16681 strain; Dengue virus, DENV2, Vero, 72 h",0.0094 µM
same,CC50,in vitro,7.5 µM
